# Measurements: paper PMC4741971, “The dual topoisomerase inhibitor A35 preferentially and specially targets topoisomerase 2α by enhancing pre-strand and post-strand cleavage and inhibiting DNA religation” (Oncotarget, 2015)
# Columns and labels:
# Format in all cases: biochemical
# [1] = molecular target: T1, top2α (Homo sapiens, UniProt P11388); test: top2α-mediated pBR322 DNA relaxation assay; also cleavage and religation assays and TARDIS in cells
# T1 construct: gene TOP2A
# [2] = molecular target: T2, top1 (Homo sapiens, UniProt P11387); test: top1-mediated DNA relaxation assay; also top1-mediated DNA cleavage and TARDIS in cells
# T2 sequence (P11387 2-765): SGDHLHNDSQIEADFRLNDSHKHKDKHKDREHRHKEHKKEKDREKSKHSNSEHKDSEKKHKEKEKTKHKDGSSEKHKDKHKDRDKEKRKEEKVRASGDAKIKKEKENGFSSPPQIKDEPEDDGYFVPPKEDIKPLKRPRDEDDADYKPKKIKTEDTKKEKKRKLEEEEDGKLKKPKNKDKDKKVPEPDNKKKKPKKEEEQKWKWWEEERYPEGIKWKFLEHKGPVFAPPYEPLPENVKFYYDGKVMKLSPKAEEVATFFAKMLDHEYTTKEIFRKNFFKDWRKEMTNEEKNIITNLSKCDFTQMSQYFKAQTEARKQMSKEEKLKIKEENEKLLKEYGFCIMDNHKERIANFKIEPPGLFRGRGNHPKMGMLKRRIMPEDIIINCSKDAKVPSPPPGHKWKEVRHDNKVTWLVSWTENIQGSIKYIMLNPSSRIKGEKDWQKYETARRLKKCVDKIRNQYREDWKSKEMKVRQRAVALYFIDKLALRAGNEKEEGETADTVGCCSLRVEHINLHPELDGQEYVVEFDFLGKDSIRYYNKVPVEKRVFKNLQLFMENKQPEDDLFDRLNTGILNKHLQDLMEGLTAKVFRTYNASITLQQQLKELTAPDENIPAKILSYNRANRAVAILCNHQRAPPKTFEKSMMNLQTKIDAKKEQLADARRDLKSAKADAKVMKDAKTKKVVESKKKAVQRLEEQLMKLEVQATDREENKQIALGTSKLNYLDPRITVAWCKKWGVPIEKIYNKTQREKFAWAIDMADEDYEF
# [3] = molecular target: T2, top1; test: top1-mediated cleavage of […]'-end-labeled 117-bp oligonucleotide
# [4] = molecular target: T3, top2β (Homo sapiens, UniProt Q02880); test: purified top2β-mediated pBR322 DNA cleavage assay
# T3 construct: gene TOP2B
# [5] = molecular target: T1, top2α; test: top2α-mediated pBR322 DNA relaxation assay at […]
# T1 sequence (P11388 whole entry): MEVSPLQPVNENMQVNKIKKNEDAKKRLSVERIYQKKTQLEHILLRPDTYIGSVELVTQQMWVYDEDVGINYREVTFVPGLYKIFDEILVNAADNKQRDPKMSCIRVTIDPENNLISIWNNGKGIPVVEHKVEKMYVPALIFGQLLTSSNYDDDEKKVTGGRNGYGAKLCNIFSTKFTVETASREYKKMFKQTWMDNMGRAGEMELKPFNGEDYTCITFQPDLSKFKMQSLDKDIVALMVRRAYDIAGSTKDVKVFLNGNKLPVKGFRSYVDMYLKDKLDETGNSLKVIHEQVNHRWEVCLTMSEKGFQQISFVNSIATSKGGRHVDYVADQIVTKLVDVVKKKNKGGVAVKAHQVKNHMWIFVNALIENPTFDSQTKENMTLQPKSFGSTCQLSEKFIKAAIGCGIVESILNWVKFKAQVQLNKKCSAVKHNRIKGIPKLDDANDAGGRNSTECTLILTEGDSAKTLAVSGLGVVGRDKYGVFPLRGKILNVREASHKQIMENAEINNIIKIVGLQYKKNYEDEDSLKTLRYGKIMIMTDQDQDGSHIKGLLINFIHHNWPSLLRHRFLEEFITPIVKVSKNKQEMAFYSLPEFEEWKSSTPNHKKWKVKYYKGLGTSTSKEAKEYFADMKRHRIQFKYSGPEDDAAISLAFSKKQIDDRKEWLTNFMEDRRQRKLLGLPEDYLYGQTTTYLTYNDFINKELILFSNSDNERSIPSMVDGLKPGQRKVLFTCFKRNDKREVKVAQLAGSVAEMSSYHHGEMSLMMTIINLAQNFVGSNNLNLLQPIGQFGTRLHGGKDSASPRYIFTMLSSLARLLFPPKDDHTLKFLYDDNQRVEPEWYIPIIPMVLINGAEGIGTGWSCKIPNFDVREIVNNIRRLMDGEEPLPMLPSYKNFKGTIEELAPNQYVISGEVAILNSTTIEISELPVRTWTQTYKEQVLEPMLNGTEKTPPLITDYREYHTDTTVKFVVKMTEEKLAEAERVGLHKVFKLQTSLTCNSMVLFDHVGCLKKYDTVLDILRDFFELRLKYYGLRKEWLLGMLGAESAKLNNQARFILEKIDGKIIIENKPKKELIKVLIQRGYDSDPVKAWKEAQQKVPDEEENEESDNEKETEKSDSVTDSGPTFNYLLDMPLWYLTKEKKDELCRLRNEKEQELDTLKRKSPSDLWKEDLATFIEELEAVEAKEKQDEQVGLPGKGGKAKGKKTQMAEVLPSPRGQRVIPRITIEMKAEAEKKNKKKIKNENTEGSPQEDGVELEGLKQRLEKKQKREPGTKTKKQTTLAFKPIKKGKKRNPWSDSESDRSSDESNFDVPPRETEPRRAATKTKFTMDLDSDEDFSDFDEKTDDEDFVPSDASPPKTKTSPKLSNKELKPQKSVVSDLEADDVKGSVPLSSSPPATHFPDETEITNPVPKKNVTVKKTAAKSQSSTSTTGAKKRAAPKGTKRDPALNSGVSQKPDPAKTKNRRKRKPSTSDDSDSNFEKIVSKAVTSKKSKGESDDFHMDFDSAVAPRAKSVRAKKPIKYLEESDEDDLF
# T3 sequence (Q02880 2-1626): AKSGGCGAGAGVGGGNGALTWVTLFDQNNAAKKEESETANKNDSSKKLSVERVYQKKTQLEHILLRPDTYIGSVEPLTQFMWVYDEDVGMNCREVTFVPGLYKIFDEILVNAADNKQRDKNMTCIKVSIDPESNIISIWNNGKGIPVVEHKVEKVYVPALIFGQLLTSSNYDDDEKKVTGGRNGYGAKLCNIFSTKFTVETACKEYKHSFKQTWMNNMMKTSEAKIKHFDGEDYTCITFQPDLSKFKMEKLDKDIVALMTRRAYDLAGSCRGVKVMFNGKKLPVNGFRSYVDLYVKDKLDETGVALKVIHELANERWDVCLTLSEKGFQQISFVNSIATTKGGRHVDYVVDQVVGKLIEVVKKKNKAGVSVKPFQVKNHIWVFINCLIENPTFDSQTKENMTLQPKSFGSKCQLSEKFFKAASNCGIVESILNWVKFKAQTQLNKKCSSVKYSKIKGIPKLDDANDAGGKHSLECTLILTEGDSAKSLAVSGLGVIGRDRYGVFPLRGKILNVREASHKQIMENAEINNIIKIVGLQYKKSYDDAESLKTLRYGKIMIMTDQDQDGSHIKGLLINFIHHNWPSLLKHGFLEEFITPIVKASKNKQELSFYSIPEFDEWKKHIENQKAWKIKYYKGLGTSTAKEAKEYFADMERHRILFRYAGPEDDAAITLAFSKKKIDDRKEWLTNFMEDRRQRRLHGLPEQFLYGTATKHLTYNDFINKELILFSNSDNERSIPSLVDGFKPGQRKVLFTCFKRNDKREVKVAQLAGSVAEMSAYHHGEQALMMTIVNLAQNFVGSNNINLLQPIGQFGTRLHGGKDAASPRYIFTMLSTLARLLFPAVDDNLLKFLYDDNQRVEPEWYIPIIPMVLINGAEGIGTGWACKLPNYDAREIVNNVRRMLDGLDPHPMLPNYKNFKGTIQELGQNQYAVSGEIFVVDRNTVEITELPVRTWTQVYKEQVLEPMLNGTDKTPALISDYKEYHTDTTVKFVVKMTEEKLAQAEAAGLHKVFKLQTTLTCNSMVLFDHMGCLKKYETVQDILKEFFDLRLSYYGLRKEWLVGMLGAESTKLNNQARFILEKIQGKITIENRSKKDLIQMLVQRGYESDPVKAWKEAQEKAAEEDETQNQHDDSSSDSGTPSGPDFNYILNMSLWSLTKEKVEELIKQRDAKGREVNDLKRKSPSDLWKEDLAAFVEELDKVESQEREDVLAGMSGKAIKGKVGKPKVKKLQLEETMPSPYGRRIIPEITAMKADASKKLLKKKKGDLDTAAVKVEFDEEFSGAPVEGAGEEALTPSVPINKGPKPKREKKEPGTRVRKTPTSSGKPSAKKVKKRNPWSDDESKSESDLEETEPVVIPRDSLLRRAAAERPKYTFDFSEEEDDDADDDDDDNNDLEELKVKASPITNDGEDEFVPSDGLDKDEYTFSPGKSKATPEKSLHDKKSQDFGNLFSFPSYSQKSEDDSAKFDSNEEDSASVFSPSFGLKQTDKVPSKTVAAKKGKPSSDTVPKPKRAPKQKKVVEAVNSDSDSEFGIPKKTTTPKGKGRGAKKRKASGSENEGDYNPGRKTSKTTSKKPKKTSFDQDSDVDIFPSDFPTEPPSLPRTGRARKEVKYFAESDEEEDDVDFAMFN
structure (smiles),measurement,setting,value
COc1ccc2c(c[n+]3c4c2ccc2c5c(cc(c24)CC3)OCO5)c1OC(=O)c1ccccc1 [A35],IC50,[1],0.56 µM
same,IC50,[2],22.1 µM
"CC[C@@]1(O)C(=O)OCc2c1cc1n(c2=O)Cc2cc3c(CN(C)C)c(O)ccc3nc2-1 [TPT, topotecan]",top1-mediated cleavage of 3'-end-labeled 117-bp oligonucleotide,[3],the DNA breakage effect was weak and far less than the positive control TPT (topotecan)
"COc1cc([C@@H]2c3cc4c(cc3[C@@H](O[C@@H]3O[C@@H]5CO[C@@H](C)O[C@H]5[C@H](O)[C@H]3O)[C@H]3COC(=O)[C@H]23)OCO4)cc(OC)c1O [VP16, etoposide]",purified top2β-mediated pBR322 DNA cleavage assay,[4],A35 did not lead to DNA breakage mediated by top2β and the positive (VP16) control induced significant DNA breakage
same,top2α-mediated pBR322 DNA relaxation assay at 10 μM,[5],inhibitory activity of A35 on top top2α was much higher than that of etoposide (VP16)
